Test: xn = mol fraction of the nth substance listed
Details: 101 kPa, Liquid; for viscosity: Capillary tube (Ostwald / Ubbelohde) method; for mass density: Vibrating tube method

CCCCCCn1cc[n+](C)c1.F[B-](F)(F)F [1-hexyl-3-methylimidazolium tetrafluoroborate] + CCCO
Details	mass density, 293.15 K [kg/m3]	mass density, 303.15 K [kg/m3]	mass density, 313.15 K [kg/m3]	mass density, 323.15 K [kg/m3]	mass density, 333.15 K [kg/m3]	viscosity, 293.15 K [mPa·s]	viscosity, 303.15 K [mPa·s]	viscosity, 313.15 K [mPa·s]	viscosity, 323.15 K [mPa·s]	viscosity, 333.15 K [mPa·s]
x1 = 0.1004	–	–	–	–	–	–	–	1.999	–	–
x1 = 0.1006	895.6	887.71	879.74	871.67	863.47	3.744	2.705	–	1.502	1.123
x1 = 0.199	955.99	948.28	940.53	932.73	924.86	6.294	4.518	3.364	2.585	1.99
x1 = 0.3002	1001.98	994.41	986.83	979.23	971.61	10.08	7.158	5.324	4.056	3.14
x1 = 0.4993	1065.02	1057.71	1050.43	1043.18	1035.95	23.7	16.37	11.84	8.808	6.76
x1 = 0.6309	1094.51	1087.38	1080.27	1073.19	1066.15	41.96	27.85	19.44	14.25	10.74
x1 = 0.7571	1116.98	1110.01	1103.05	1096.1	1089.2	73.7	46.65	31.26	21.97	16.09
x1 = 0.8894	1135.92	1129.14	1122.32	1115.51	1108.71	139.42	82.45	52.28	35.15	24.67
x1 = 1	1149.24	1142.48	1135.79	1129.08	1122.37	232.65	130.02	78.24	50.3	34.02

From the NIST ThermoML archive (doi:10.1016/j.tca.2011.10.030)
